Results on 14 compounds are retold here after US12559492B2, “BRAF degraders” (C4 Therapeutics, Inc., priority 2020, dated 2026).

Structures are written as SMILES.

This experiment concerns the target BRAF^V600E protein (Homo sapiens, UniProt P15056, V600E). Nature of the experiment: HiBiT cellular BRAF V600E degradation assay. Format: cell-based. Conditions: 24 h incubation; for DC50: A375.10 cells (HiBiT tag knocked in at N-terminal of BRAF V600E), concentration at which 50% of total cellular BRAF V600E is degraded; for Emax / HiBit 24 h Emax: A375.10 cells, Emax = amount of residual protein remaining in the cell after compound treatment; for Emax: read-out: HiBit 24 h Emax. The source says:
DMEM no-phenol red medium supplemented with L-glutamine was purchased from (Corning). Fetal bovine serum (FBS) was purchased from Gibco (Grand Island, NY, USA). Nano-Glo® HiBiT Lytic Assay Buffer & Reagents were purchased from Promega (Madison, WI, USA). […] Cell culture flasks and 384-well black flat-bottom polystyrene TC-treated microplates were acquired from Corning (Corning, NY, USA).
HiBiT Cellular BRAFv^600E Degradation Assay
Prior to the assay, the A375.10 cell line is maintained in DMEM no-phenol red medium supplemented with 10% fetal bovine serum (FBS). […] Briefly, test compounds were added to the 384-well plate from a top concentration of 10 μM with 11 half log dilutions of compound, plated in duplicate. Then, 30 uL of a suspension of A375.10 cell lines was dispensed into columns 1-24 of the 384-well plates at a cell density of 7500 cells per well. The plates were kept at 37° C. with 5% CO2 for the duration of the assay (6 or 24 hr). After the desired incubation time with compound, 30 uL of Nano-Glo® HiBiT Lytic Buffer containing LgBiT protein (diluted 1:100) and luminescence substrate (diluted 1:50) were added to the cells in columns 1-23 of the assay plate. The plate was the incubated for 30 min on the bench at room temperature. Finally, HiBiT luminescence signal was acquired on EnVision™ Multilabel Reader (PerkinElmer, Santa Clara, CA, USA).
Quantification of luminescence responses measured in the presence of compound were normalized to a high signal/no degradation control (untreated cells+lytic detection reagent) and a low signal/full degradation control (untreated cells, no lytic detection reagent). Data were analyzed with a 4-parameter logistic fit to generate sigmoidal dose-response curves. […] The Emax, or maximum effect of each compound, represents the amount of residual protein remaining in the cell following compound treatment.

BRAF^V600E protein, sequence (P15056 whole entry V600E): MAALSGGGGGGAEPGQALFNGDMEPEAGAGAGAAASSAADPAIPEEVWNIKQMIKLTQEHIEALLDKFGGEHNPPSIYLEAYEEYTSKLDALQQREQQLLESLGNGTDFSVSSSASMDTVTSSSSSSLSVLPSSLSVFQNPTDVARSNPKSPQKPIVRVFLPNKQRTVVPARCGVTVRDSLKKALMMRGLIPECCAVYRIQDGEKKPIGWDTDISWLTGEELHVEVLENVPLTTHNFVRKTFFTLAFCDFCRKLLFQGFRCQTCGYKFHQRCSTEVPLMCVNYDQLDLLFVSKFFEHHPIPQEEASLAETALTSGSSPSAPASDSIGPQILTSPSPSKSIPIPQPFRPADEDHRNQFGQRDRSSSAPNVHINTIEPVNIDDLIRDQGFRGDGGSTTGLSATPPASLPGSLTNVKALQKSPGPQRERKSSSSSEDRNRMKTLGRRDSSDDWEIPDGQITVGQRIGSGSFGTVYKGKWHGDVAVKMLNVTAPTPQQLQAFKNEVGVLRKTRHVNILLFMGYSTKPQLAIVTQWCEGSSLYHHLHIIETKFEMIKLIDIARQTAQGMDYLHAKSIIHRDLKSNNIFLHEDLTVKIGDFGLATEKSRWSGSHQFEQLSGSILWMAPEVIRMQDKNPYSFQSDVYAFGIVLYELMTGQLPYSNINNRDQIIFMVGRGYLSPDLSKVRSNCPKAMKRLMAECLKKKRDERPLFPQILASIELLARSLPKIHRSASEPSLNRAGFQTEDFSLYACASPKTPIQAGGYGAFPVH

In the case of `CCN(C)S(=O)(=O)Nc1ccc(F)c(C(=O)c2c[nH]c3ncc(-c4ccc(N5CCN(C(=O)CC6(O)CCN(c7ccc(NC8CCC(=O)NC8=O)c(F)c7)CC6)CC5)cc4)cc23)c1F` (stereo not shown) [Example 184, 5-[4-[4-[2-[1-[4-[(2,6-dioxo-3-piperidyl)amino]-3-fluoro-phenyl]-4-hydroxy-4-piperidyl]acetyl]piperazin-1-yl]phenyl]-3-[3-[[ethyl(methyl)sulfamoyl]amino]-2,6-difluoro-benzoyl]-1H-pyrrolo[2,3-b]pyridine], half-maximal degradation (DC50) was put at 3.54 nM and the Emax is 9.04%.

As for `CC(C)S(=O)(=O)Nc1ccc(F)c(C(=O)c2c[nH]c3ncc(-c4cnc(N5CCN(C(=O)CN6CCC(c7ccc(C8CCC(=O)NC8=O)cc7F)CC6)CC5)nc4)cc23)c1F` (stereo not shown) [Example 9, N-[3-[5-[2-[4-[2-[4-[4-(2,6-dioxo-3-piperidyl)-2-fluoro-phenyl]-1-piperidyl]acetyl]piperazin-1-yl]pyrimidin-5-yl]-1H-pyrrolo[2,3-b]pyridine-3-carbonyl]-2,4-difluoro-phenyl]propane-2-sulfonamide], half-maximal degradation (DC50) was put at 10.7 nM and the Emax is 3.41%.

Regarding `CCN(C)S(=O)(=O)Nc1ccc(F)c(C(=O)c2c[nH]c3ncc(-c4cnc(N5CCN(C(=O)NC6CCN(c7ccc(NC8CCC(=O)NC8=O)cc7F)CC6)CC5)nc4)cc23)c1F.O=C(O)C(F)(F)F` (stereo not shown) [Example A123, N-[1-[4-[(2,6-Dioxopiperidin-3-yl)amino]-2-fluorophenyl]piperidin-4-yl]-4-[5-[3-[3-[[ethyl(methyl)sulfamoyl]amino]-2,6-difluorobenzoyl]-1H-pyrrolo[2,3-b]pyridin-5-yl]pyrimidin-2-yl]piperazine-1-carboxamide; 2,2,2-trifluoroacetic acid], it took 10 nM to reach half-maximal degradation (DC50) and the “HiBit 24 h Emax” value came out at 8%.

Regarding `CCN(C)S(=O)(=O)Nc1ccc(F)c(C(=O)c2c[nH]c3ncc(-c4cnc(N5CCN(C(=O)CC6CCN(c7ccc8c(C9CCC(=O)NC9=O)nn(C)c8c7)CC6)CC5)nc4)cc23)c1F` (stereo not shown) [Example 47, 3-(2,6-dioxo-3-piperidyl)-6-[4-[2-[4-[5-[3-[3-[[ethyl(methyl)sulfamoyl]amino]-2,6-difluoro-benzoyl]-1H-pyrrolo[2,3-b]pyridin-5-yl]pyrimidin-2-yl]piperazin-1-yl]-2-oxo-ethyl]-1-piperidyl]-1-methyl-indazole], the DC50 was found to be 5.38 nM and the Emax turned out to be 19.3%.

On to `CCN(C)S(=O)(=O)Nc1ccc(F)c(C(=O)c2c[nH]c3ncc(-c4ccc(N5CCN(C(=O)CC6(O)CCN(c7ccc(N[C@@H]8CCC(=O)NC8=O)cc7F)CC6)CC5)nc4)cc23)c1F` [Example 177, 5-[6-[4-[2-[1-[4-[[(3R)-2,6-dioxo-3-piperidyl]amino]-2-fluoro-phenyl]-4-hydroxy-4-piperidyl]acetyl]piperazin-1-yl]-3-pyridyl]-3-[3-[[ethyl(methyl)sulfamoyl]amino]-2,6-difluoro-benzoyl]-1H-pyrrolo[2,3-b]pyridine], for which it took 3.65 nM to reach half-maximal degradation (DC50) and the Emax turned out to be 9.99%.

Consider `CCN(C)S(=O)(=O)Nc1ccc(F)c(C(=O)c2c[nH]c3ncc(-c4cnc(N5CCN(C(=O)CC6CCN(c7ccc(NC8CCC(=O)NC8=O)cc7F)C6)CC5)nc4)cc23)c1F` (stereo not shown) [Example 48, 5-[2-[4-[2-[1-[4-[(2,6-dioxo-3-piperidyl)amino]-2-fluoro-phenyl]pyrrolidin-3-yl]acetyl]piperazin-1-yl]pyrimidin-5-yl]-3-[3-[[ethyl(methyl)sulfamoyl]amino]-2,6-difluoro-benzoyl]-1H-pyrrolo[2,3-b]pyridine], for which the DC50 came out at 23 nM and the Emax turned out to be 15%.

Consider `CCN(C)S(=O)(=O)Nc1ccc(F)c(C(=O)c2c[nH]c3ncc(-c4cnc(N5CCN(C(=O)CN6CCC(n7cc(NC8CCC(=O)NC8=O)cn7)CC6)CC5)nc4)cc23)c1F` (stereo not shown) [Example A79, 5-[2-[4-[2-[4-[4-[(2,6-Dioxopiperidin-3-yl)amino]pyrazol-1-yl]piperidin-1-yl]acetyl]piperazin-1-yl]pyrimidin-5-yl]-3-[3-[[ethyl(methyl)sulfamoyl]amino]-2,6-difluorobenzoyl]-1H-pyrrolo[2,3-b]pyridine], for which the DC50 is 60 nM and the Emax was 22%.

On to `CCN(C)S(=O)(=O)Nc1cccc(C(=O)c2c[nH]c3ncc(-c4ccc(N5CCN(C(=O)CC6(O)CCN(c7ncc(NC8CCC(=O)NC8=O)cc7F)CC6)CC5)nc4)cc23)c1F` (stereo not shown) [Example 115, 5-[6-[4-[2-[1-[5-[(2,6-dioxo-3-piperidyl)amino]-3-fluoro-2-pyridyl]-4-hydroxy-4-piperidyl]acetyl]piperazin-1-yl]-3-pyridyl]-3-[3-[[ethyl(methyl)sulfamoyl]amino]-2-fluoro-benzoyl]-1H-pyrrolo[2,3-b]pyridine], for which half-maximal degradation (DC50) was put at 5.13 nM and the Emax is 12.2%.

For the compound `CCN(C)S(=O)(=O)Nc1cccc(C(=O)c2c[nH]c3ncc(-c4ccc(N5CCN(C(=O)CC6(O)CCN(c7ccc(NC8CCC(=O)NC8=O)cc7)CC6)CC5)cc4)cc23)c1F` (stereo not shown) [Example 116, 5-[4-[4-[2-[1-[4-[(2,6-dioxo-3-piperidyl)amino]phenyl]-4-hydroxy-4-piperidyl]acetyl]piperazin-1-yl]phenyl]-3-[3-[[ethyl(methyl)sulfamoyl]amino]-2-fluoro-benzoyl]-1H-pyrrolo[2,3-b]pyridine], the DC50 worked out at 5.32 nM and the Emax stood at 13.4%.

Consider `CCN(C)S(=O)(=O)Nc1ccc(F)c(C(=O)c2c[nH]c3ncc(-c4cnc(N5CCN(C(=O)CC6(O)CCN(c7ccc(NC8CCC(=O)NC8=O)cc7F)CC6)CC5)c(F)c4)cc23)c1F` (stereo not shown) [Example 188, 5-[6-[4-[2-[1-[4-[(2,6-dioxo-3-piperidyl)amino]-2-fluoro-phenyl]-4-hydroxy-4-piperidyl]acetyl]piperazin-1-yl]-5-fluoro-3-pyridyl]-3-[3-[[ethyl(methyl)sulfamoyl]amino]-2,6-difluoro-benzoyl]-1H-pyrrolo[2,3-b]pyridine], for which the DC50 was determined as 4.5 nM and the Emax stood at 5.98%.

`CCN(C)S(=O)(=O)Nc1ccc(F)c(C(=O)c2c[nH]c3ncc(-c4ccc(N5CCN(C(=O)CN6CCC(c7ccc(O[C@@H]8CCC(=O)NC8=O)cc7)CC6)CC5)nc4)cc23)c1F` [Example 74, 5-[6-[4-[2-[4-[4-[[(3R)-2,6-dioxo-3-piperidyl]oxy]phenyl]-1-piperidyl]acetyl]piperazin-1-yl]-3-pyridyl]-3-[3-[[ethyl(methyl)sulfamoyl]amino]-2,6-difluoro-benzoyl]-1H-pyrrolo[2,3-b]pyridine]: it took 32.5 nM to reach half-maximal degradation (DC50) and the “HiBit 24 h Emax” value was 9.07%.

Turning to `CCN(C)S(=O)(=O)Nc1ccc(F)c(C(=O)c2c[nH]c3ncc(-c4cnc(N5CCN(C(=O)CC6CCN(c7ccc(NC8CCC(=O)NC8=O)cc7)CC6)CC5)nc4)cc23)c1F` (stereo not shown) [Example 31, 5-[2-[4-[2-[1-[4-[(2,6-dioxo-3-piperidyl)amino]phenyl]-4-piperidyl]acetyl]piperazin-1-yl]pyrimidin-5-yl]-3-[3-[[ethyl(methyl)sulfamoyl]amino]-2,6-difluoro-benzoyl]-1H-pyrrolo[2,3-b]pyridine], the DC50 came out at 30 nM and the maximum response (Emax) is 21.2%.

As to `O=C1CCC(Nc2ccc(N3CCC(O)(CC(=O)N4CCN(c5ccc(-c6cnc7[nH]cc(C(=O)c8c(F)ccc(NS(=O)(=O)N9CC[C@@H](F)C9)c8F)c7c6)cc5)CC4)CC3)c(F)c2)C(=O)N1` (stereo partly drawn) [Example 191, (3R)—N-[3-[5-[4-[4-[2-[1-[4-[(2,6-dioxo-3-piperidyl)amino]-2-fluoro-phenyl]-4-hydroxy-4-piperidyl]acetyl]piperazin-1-yl]phenyl]-1H-pyrrolo[2,3-b]pyridine-3-carbonyl]-2,4-difluoro-phenyl]-3-fluoro-pyrrolidine-1-sulfonamide], the DC50 came out at 3.89 nM and the Emax amounted to 7.76%.

Consider `CCN(C)S(=O)(=O)Nc1ccc(F)c(C(=O)c2c[nH]c3ncc(-c4cnc(N5CCN(C(=O)CC6CCN(c7ccc(NC8CCC(=O)NC8=O)cc7F)CC6)CC5)nc4)cc23)c1F` (stereo not shown) [Example 42, 5-[2-[4-[2-[1-[4-[(2,6-dioxo-3-piperidyl)amino]-2-fluoro-phenyl]-4-piperidyl]acetyl]piperazin-1-yl]pyrimidin-5-yl]-3-[3-[[ethyl(methyl)sulfamoyl]amino]-2,6-difluoro-benzoyl]-1H-pyrrolo[2,3-b]pyridine], for which it took 3.41 nM to reach half-maximal degradation (DC50) and the Emax came out at 11.5%.
